Reference: patent US5985910A, “3- [4- (2- Phenyl-Indole-1-ylmethyl) Phenyl]- Acrylamides as estrogenic agents” (priority 1997, dated 1999)

What was measured:
uteri = assay: Rat Uterotrophic/Antiuterotrophic Bioassay (results headed 3-Day Ovariectomized Rat Model); format: in vivo, rat (Sprague-Dawley); details: 1 μG; Example 12 experiment, control = 31.4 mg
Description: Rat Uterotrophic/Antiuterotrophic Bioassay
Immature Sprague-Dawley rats (female, 18 days old) were tested in groups of six. […] On day 4 the animals were sacrificed by CO2 asphyxiation and their uteri were removed and stripped of excess lipid, any fluid removed and the wet weight determined. A small section of one horn was submitted for histology and the remainder used to isolate total RNA in order to evaluate complement component 3 gene expression.

Ishikawa cells = assay: Ishikawa Cell Alkaline Phosphatase Assay; format: cell-based, human; details: for % Activation (Compound ± 1 nM 17β-estradiol) (alkaline phosphatase): 10^-6 M compound + 1 nM 17β-estradiol, 48 h (antiestrogen test); for % Activation (alkaline phosphatase): compound alone, 48 h, percent of response related to 1 nM 17β-estradiol
Description: Ishikawa Cell Alkaline Phosphatase Assay
(§1) Cell Maintenance and Treatment
Ishikawa cells were maintained in DMEM/F12 (50%:50%) containing phenol red+10% fetal bovine serum and the medium was supplemented with 2 mM Glutamax, 1% Pen/Strap and 1 mM sodium pyruvate. Five days prior to the beginning of each experiment (treatment of cells) the medium was changed to phenol red-free DMEM/F12+10% dextran coated charcoal stripped serum. On the day before treatment, cells were harvested using 0.5% trypsin/EDTA and plated at a density of 5×10^4 cells/well in 96-well tissue culture plates. […] Cells were treated for 48 h prior to assay. […] Sample population for at each dose was n=8.
Alkaline Phosphatase Assay
At the end of 48 h the media is aspirated and cells are washed three times with phosphate buffered saline (PBS). 50 μL of lysis buffer (0.1 M Tris-HCl, pH 9.8, 0.2% Triton X-100) is added to each well. Plates are placed at -80° C. for a minimum of 15 minutes. Plates are thawed at 37° C. followed by the addition of 150 μL of 0.1 M Tris-HCl, pH 9.8, containing 4 mM para-nitrophenylphosphate (pNPP) to each well (final concentration, 3 mM pNPP).
Absorbance and slope calculations were made using the KineticCalc Application program (Bio-Tek Instruments, Inc., Winooski, Vt.). Results are expressed as the mean +/-S.D. of the rate of enzyme reaction (slope) averaged over the linear portion of the kinetic reaction curve (optical density readings every 5 minutes for 30 minutes absorbance reading).
Various compounds were assayed for estrogenic activity by the alkaline phosphatase method and corresponding ED50 values (95% C.I.) were calculated. The four listed in the following were used as reference standards:
A description of such methods is provided by Holinka, C. F., Hata, H., Kuramoto, H. and Gurpide, E. (1986) Effects of steroid hormones and antisteroids on alkaline phosphatase activity in human endometrial cancer cells (Ishikawa Line). Cancer Research, 46:2771-2774, and by Littlefield, B. A., Gurpide, E., Markiewicz, L., McKinley, B. and by Hochberg, R. B. (1990) A simple and sensitive microtiter plate estrogen bioassay based on stimulation alkaline phosphatase in Ishikawa cells; Estrogen action of D5 adrenal steroids. Endocrinology, 6:2757-2762.

estrogen receptor [1] = target: T1, estrogen receptor (Homo sapiens, UniProt P03372); assay: In Vitro Estrogen Receptor Binding Assay ([3H]-17β-estradiol competition, cytosol of CHO cells overexpressing the estrogen receptor); parameters: made in house; host or cells: CHO cells overexpressing the receptor; 100,000 g cytosol
T1 sequence (P03372 1-595): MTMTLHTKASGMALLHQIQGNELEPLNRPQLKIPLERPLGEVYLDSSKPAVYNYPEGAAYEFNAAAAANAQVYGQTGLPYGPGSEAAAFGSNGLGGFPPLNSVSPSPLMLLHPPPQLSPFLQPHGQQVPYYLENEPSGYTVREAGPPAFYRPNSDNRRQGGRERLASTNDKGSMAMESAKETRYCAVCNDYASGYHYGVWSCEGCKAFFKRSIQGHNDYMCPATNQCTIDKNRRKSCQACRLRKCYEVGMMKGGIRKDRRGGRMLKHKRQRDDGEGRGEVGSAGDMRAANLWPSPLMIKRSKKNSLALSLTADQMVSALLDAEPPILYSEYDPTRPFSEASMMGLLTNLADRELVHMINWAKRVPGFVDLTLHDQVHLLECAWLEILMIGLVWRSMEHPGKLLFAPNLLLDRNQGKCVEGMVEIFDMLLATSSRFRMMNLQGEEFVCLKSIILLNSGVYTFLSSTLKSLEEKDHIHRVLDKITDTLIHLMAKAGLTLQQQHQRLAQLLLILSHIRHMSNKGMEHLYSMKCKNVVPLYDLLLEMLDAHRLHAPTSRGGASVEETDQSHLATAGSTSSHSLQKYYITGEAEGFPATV
Description: In Vitro Estrogen Receptor Bonding Assay
CHO cells overexpressing the estrogen receptor were grown in 150 mm^2 dishes in DMEM+10% dextran coated charcoal, stripped fetal bovine serum. The plates were washed twice with PBS and once with 10 mM Tris-HCl, pH 7.4, 1 mM EDTA. Cells were harvested by scraping the surface and then the cell suspension was placed on ice. Cells were disrupted with a hand-held motorized tissue grinder using two, 10-second bursts. […] The cytosol was then frozen and stored at -80° C. Protein concentration of the cytosol was estimated using the BCA assay with reference standard protein.
100 uG/100 uL of the receptor preparation was aliquoted per well. […] The plate was incubated at room temperature for 2.5 h. […] 200 uL of the supernatant solution was then removed for scintillation counting. Samples were counted to 2% or 10 minutes, whichever occurs first. […] Also, wells containing radioactivity but no cytosol were processed with charcoal to estimate unremovable DPM of [^3 H] […].
Counts per minute (CPM) of radioactivity were automatically converted to disintegrated per minute (DPM) by the Beckman LS 7500 Scintillation Counter using a set of quenched standards to generate a H# for each sample.
((DPM sample-DPM not removed by charcoal)/(DPM estradiol-DPM not removed by charcoal))×100%=% of estradiol binding
For the generation of IC50 curves, % binding is plotted vs compound. […] For a description of these methods, see Hulme, E. C., ed. […] Receptor-Ligand Interactions: A Practical Approach. IRL Press, New York (see especially chapter 8).

estrogen receptor [2] = target: T1, estrogen receptor; assay: 2X VIT ERE Transfection (luciferase) Assay in CHO cells; format: cell-based; parameters: expressed in transfected cells; host or cells: Chinese Hamster Ovary (CHO) cells, stably transfected; details: for % Activation with 1 nM 17β-estradiol (luciferase): 1 uM compound + 1 nM 17β-estradiol, 24 h (antagonism); for activation at 1 µM: CHO, 24 h
Description: 2X VIT ERE Transfection Assay
as §1
Chinese Hamster Ovary cells (CHO) which had been stably transfected with the human estrogen receptor were maintained in DMEM+10% fetal bovine serum (FBS). 48 h prior to treatment the growth medium was replaced with DMEM lacking phenol red +10% dextran coated charcoal stripped FBS (treatment medium). Cells were plated at a density of 5000 cells/well in 96-well plates containing 200 μL of medium/well.
Calcium Phoshate Transfection
Reporter DNA (Promega plasmid pGL2 containing two tandem copies of the vitellogenin ERE in front of the minimal thymidine kinase promoter driving the luciferase gene) was combined with the B-galactosidase expression plasmid pCH110 (Pharmacia) and carrier DNA (pTZ18U) in the following ratio:
20 uL of this mixture was added to each well of cells and remained on the cells for 16 h. […] Each treatment condition was performed on 8 wells (n=8) which were incubated for 24 h prior to the luciferase assay.
After removing the PBS, 25 uL of Promega lysis buffer was added to each well and allowed to stand at room temperature for 15 min, followed by 15 min at -80° C. and 15 min at 37° C. 20 uL of lysate was transferred to an opaque 96 well plate for luciferase activity evaluation and the remaining lysate (5 uL) was used for the B-galactosidase activity evaluation (normalize transfection). The luciferan substrate (Promega) was added in 100 uL aliquots to each well automatically by the luminometer and the light produced (relative light units) was read 10 seconds after addition.
To the remaining 5 uL of lysate 45 uL of PBS was added. Then 50 uL of Promega B-galactosidase 2× assay buffer was added, mixed well and incubated at 37° C. for 1 hour. A plate containing a standard curve (0.1 to 1.5 milliunits in triplicate) was set up for each experimental run. The plates were analyzed on a Molecular Devices spectrophotometric plate reader at 410 nm. The optical densities for the unknown were converted to milliunits of activity by mathematical extrapolation from the standard curve.
The luciferase data was generated as relative light units (RLUs) accumulated during a 10 second measurement and automatically transferred to a JMP (SAS Inc) file where background RLUs were subtracted. The B-galactosidase values were automatically imported into the file and these values were divided into the RLUs to normalize the data. The mean and standard deviations were determined from a n=8 for each treatment. […] These techniques are described by Tzukerman, M. T., Esty, A., Santiso-Mere, D., Danielian, P., Parker, M. G., Stein, R. B., Pike, J. W. and McDonnel, D. P. (1994). Human estrogen receptor transactivational capacity was determined by both cellular and promoter context and mediated by two functionally distinct intramolecular regions (see Molecular Endocrinology, 8:21-30).

Compound | uterine wet weight, 1 μG 17β-estradiol (uteri) | % Activation (Compound ± 1 nM 17β-estradiol) (alkaline phosphatase) (Ishikawa cells) | % Activation (alkaline phosphatase) (Ishikawa cells) | Estrogen Receptor Affinity (RBA) (estrogen receptor [1]) | % Activation with 1 nM 17β-estradiol (luciferase) (estrogen receptor [2]) | activation at 1 µM (estrogen receptor [2])
C[C@]12CC[C@@H]3c4ccc(O)cc4CC[C@H]3[C@@H]1CC[C@@H]2O [17β-estradiol, reference compound] | 89.0 mg |  |  |  |  | 
CCN(CC)C(=O)/C=C/c1ccc(Cn2c(-c3ccc(O)cc3)c(C)c3cc(O)ccc32)cc1 [Example 7, (E)-N,N-Diethyl-3-{4-[5-hydroxy-2-(4-hydroxy-phenyl)-3-methyl-indol-1-ylmethyl]-phenyl}-acrylamide] |  | 9% | 1% | 42 | 8% | 4%
Cc1c(-c2ccc(O)cc2)n(Cc2ccc(/C=C/C(=O)NC(C)(C)C)cc2)c2ccc(O)cc12 [Example 8, 1(E)-N-tert-butyl-3-{4-[5-hydroxy-2-(4-hydroxy-phenyl)-3-methyl-indol-1-ylmethyl]-phenyl}-acrylamide] |  | 22% | 10% | 40 | 78% | 6%
Cc1c(-c2ccc(O)cc2)n(Cc2ccc(/C=C/C(=O)N3CCCC3)cc2)c2ccc(O)cc12 [Example 9, (E)-Pyrrolidino-3-{4-[5-hydroxy-2-(4-hydroxy-phenyl)-3-methyl-indol-1-ylmethyl]-phenyl}-acrylamide] |  | 11% | 3% |  | 8% | 6%
Cc1c(-c2ccc(O)cc2)n(Cc2ccc(/C=C/C(=O)N(C)C)cc2)c2ccc(O)cc12 [Example 10, (E)-N,N-Dimethyl-3-{4-[5-hydroxy-2-(4-hydroxy-phenyl)-3-methyl-indol-1-ylmethyl]-phenyl}-acrylamide] |  | 19% | 6% | 20 | 2% | 1%
CCCCN(C)C(=O)/C=C/c1ccc(Cn2c(-c3ccc(O)cc3)c(C)c3cc(O)ccc32)cc1 [Example 12, (E)-N-Butyl. N'-methyl-3-{4-[5-hydroxy-2-(4-hydroxy-phenyl)-3-methyl-indol-1-ylmethyl]-phenyl}-acrylamide] |  | 16% | 7% | 114 | 24% | 13%
Cc1c(-c2ccc(O)cc2)n(Cc2ccc(/C=C/C(=O)N3CCOCC3)cc2)c2ccc(O)cc12 [Example 13] |  | 9% | 7% |  | 17% | 8%
Cc1c(-c2ccc(O)cc2)n(Cc2ccc(/C=C/C(N)=O)cc2)c2ccc(O)cc12 [Example 14, (E)-3-{4-[5-hydroxy-2-(4-hydroxy-phenyl)-3-methyl-indol-1-ylmethyl]-phenyl}-acrylamide] |  | 14% | 2% | 32 | 57% | 19%
CNC(=O)/C=C/c1ccc(Cn2c(-c3ccc(O)cc3)c(C)c3cc(O)ccc32)cc1 [Example 15, (E)-N,Methyl-3-{4-[5-hydroxy-2-(4-hydroxy-phenyl)-3-methyl-indol-1-ylmethyl]-phenyl}-acrylamide] |  | 5% | 0% | 53 | 31% | 15%
